System: Huh7 psiCHECK-miR122 Renilla luciferase reporter, 48 h
Assay: miR-122 inhibitors in Huh7 reporter cells, dose response, cell-based, Huh7 psiCHECK-miR122, Renilla luciferase, cherry-pick (AID 652053)

Row | Compound | AC40 [µM]
1 | O=S(=O)(Nc1cccc(-c2cn3ccsc3n2)c1)c1ccc(F)cc1 | 6.48
2 | O=C(CCc1ccc(S(=O)(=O)NC2CCCCC2)cc1)NCc1ccccc1 | 4.38
3 | COc1ccc(S(=O)(=O)N(C)C[C@H]2Oc3cc(C#CC4CCCC4)ccc3S(=O)(=O)N([C@H](C)CO)C[C@@H]2C)cc1 | 1.58
4 | Cc1ccccc1NC(=O)Nc1ccc2c(c1)C(=O)N(C)[C@H]1CC[C@H](CC(=O)NCC3CC3)O[C@H]1CO2 | 1.87
5 | CCCNC(=O)NNC(=O)c1cc(-c2ccc3c(c2)OCO3)nc2ccccc12 | 2.65
6 | COc1ccc(S(=O)(=O)N(C)C[C@H]2Oc3ccc(NC(=O)Cc4ccccc4)cc3C(=O)N([C@H](C)CO)C[C@H]2C)cc1 | 2.75
7 | O=S(=O)(Nc1ccc(Cl)cc1)c1cccc2nsnc12 | 14.8
8 | C[C@@H]1CN([C@H](C)CO)C(=O)c2cc(N(C)C)ccc2O[C@H]1CN(C)Cc1ccc(C(=O)Nc2ccccc2N)cc1 | 1.96
9 | Oc1ccc(/C=N/NP(=S)(c2ccccc2)c2ccccc2)cc1 | 7.07
10 | CCOc1ccc(NS(=O)(=O)c2cc(C)c(C)cc2C)cc1 | 2.04
11 | COc1ccc(N(C(=O)c2ccncc2)S(=O)(=O)c2ccc3c4c(cccc24)C(=O)N3C)cc1 | 7.01
12 | Nc1c(S(=O)(=O)c2cccs2)c2nc3ccccc3nc2n1Cc1ccccc1 | 1.86
13 | COc1ccc(S(=O)(=O)Nc2ccc(S(=O)(=O)Nc3ccc(F)cc3)cc2)cc1C | 14.5
14 | Cc1cc(C)c(S(=O)(=O)NCCn2ccc3ccccc32)c(C)c1 | 1.93
15 | CCc1c(C(=O)NCc2ccccc2Cl)[nH]c(C)c1C(C)=O | 1.38
16 | COc1cccc(CC(=O)Nc2ccc(N3CCOCC3)c(S(=O)(=O)Nc3ccccc3OC)c2)c1 | 1.48
17 | O=S(=O)(NCc1cccs1)c1cccc(S(=O)(=O)N2CCCCC2)c1 | 6.72
18 | COc1cc(OC)c(NS(=O)(=O)c2ccc(Cl)c(C(=O)OC(C)C(=O)N3CCCC3)c2)cc1Cl (stereo not drawn) | 8.08
19 | CCc1nnc(NC(=O)c2ccc(NS(=O)(=O)c3ccccc3)cc2)s1 | 2.68
20 | Cc1ccc(NS(=O)(=O)c2ccc(-c3cnc(C4CC4)o3)cc2)cc1 | 9.25
21 | COc1ccc(S(=O)(=O)NCc2ccco2)c2ccccc12 | 2.62
22 | O=S(=O)(Nc1ccc(Cl)cc1)c1cccc2cccnc12 | 4.21
23 | COc1ccc(C2=Nn3c(nnc3-c3ccccc3OC)SC2)cc1OC1CCOC1 (stereo not drawn) | 8.29
24 | COc1ccc(S(=O)(=O)Nc2ccc3c(c2)CC(=O)N([C@H](C)CO)C[C@H](C)[C@H](CN(C)Cc2ccc(C(=O)Nc4ccccc4N)cc2)O3)cc1 | 10.5
25 | Cc1cc(NS(=O)(=O)c2ccccc2)cc(Cl)c1O | 21.1
26 | Cc1ccc(NC(=S)NCc2ccc(F)cc2)cc1 | 20.3
27 | COc1ccc(CN(C)C[C@H]2Oc3c(NC(=O)NC4CCCCC4)cccc3C(=O)N([C@H](C)CO)C[C@@H]2C)cc1 | 5.06

Row | Compound | AC40 [µM]
28 | COc1ccc(S(=O)(=O)NCc2ccccn2)cc1NC(=O)c1ccccc1C | 10.2
29 | Cc1ccc(C2c3c(-c4ccccc4O)n[nH]c3C(=O)N2Cc2ccncc2)cc1 (stereo not drawn) | 8.08
30 | COc1ccc(C(C)(C)C)cc1NS(=O)(=O)c1cccc2cccnc12 | 2.14
31 | C[C@@H]1CN([C@H](C)CO)C(=O)Cc2cc(NC(=O)Nc3ccccc3)ccc2O[C@@H]1CN(C)C(=O)Nc1cccc2ccccc12 | 0.756
32 | Cc1ccccc1CC1(C)C(=O)Nc2ccc(S(=O)(=O)NC3CCCCC3)cc21 (stereo not drawn) | 2.69
33 | Nc1ncc(Br)cc1S(=O)(=O)NC1CCCCC1 | 2.19
34 | CCOc1ccc(NS(=O)(=O)c2ccc(NC(=S)NC(=O)CC(C)C)cc2)cc1 | 1.68
35 | Cc1ccc(-c2nnc(Nc3ccccc3)c3ccccc23)cc1S(=O)(=O)NCC1CCCO1 (stereo not drawn) | 0.63
36 | C[C@@H]1CN([C@H](C)CO)C(=O)c2cccc(N(C)C)c2O[C@H]1CN(C)C(=O)Nc1ccccc1 | 1.33
37 | Cc1nn(C)c(C)c1S(=O)(=O)NCc1cccs1 | 13.9
38 | Cc1ccc(S(=O)(=O)Nc2ccc(C(=O)Nc3cc(C)on3)cc2)cc1 | 1.44
39 | CCCNC(=O)C[C@H]1CC[C@H]2[C@H](COc3ccc(NC(=O)Cc4cccs4)cc3C(=O)N2C)O1 | 2.21
40 | Cc1cc(S(=O)(=O)NCC2CC2)c(Cl)cc1Cl | 2.7
41 | CC(=O)N1CCc2cc(Br)cc(S(=O)(=O)NCc3ccc(Cl)cc3)c21 | 4.29
42 | CCOc1ccc(S(=O)(=O)/N=C(/Nc2ccc(C)c(S(=O)(=O)N3CCOCC3)c2)c2ccccc2)cc1 | 2.23
43 | O=S(=O)(Nc1ccc(C(O)(C(F)(F)F)C(F)(F)F)cc1)c1cccc2cccnc12 | 9.64
44 | CC(C)n1nc(C(=O)Nc2cccc(S(=O)(=O)NCc3ccco3)c2)c2ccccc2c1=O | 2.61
45 | COc1ccc(NS(=O)(=O)c2cc(NC(=O)[C@@H](NC(=O)c3ccccc3)C(C)C)ccc2C)cc1 | 2.3
46 | C[C@@H]1CN([C@H](C)CO)C(=O)c2cccc(NS(C)(=O)=O)c2O[C@@H]1CN(C)Cc1ccc(C(F)(F)F)cc1 | 12.5
47 | C[C@@H]1CN([C@H](C)CO)C(=O)Cc2cc(N(C)C)ccc2O[C@@H]1CN(C)Cc1ccc(C(=O)Nc2ccccc2N)cc1 | 11.1
48 | Cc1ccc(NS(=O)(=O)c2cc(Br)cnc2N)cc1C | 2.36
49 | Cc1nc2cc(NS(=O)(=O)c3c(C)c(C)cc(C)c3C)ccc2s1 | < 0.26
50 | CCCC(=O)Nc1nc2ccc(S(=O)(=O)N3CCCCC3)cc2s1 | 8.84
51 | COc1ccccc1C(=O)Nc1ccc2c(c1)C(=O)N(C)[C@H]1CC[C@@H](CC(=O)NCc3ccc(Cl)c(Cl)c3)O[C@H]1CO2 | 0.359
52 | O=S(=O)(NCCC1=CCCCC1)c1ccccc1Cl | 3.9
53 | Cc1ccc(-c2nn(Cc3ccccc3)cc2C(=O)N2CCN(c3ccccn3)CC2)cc1 | 2.44

From PubChem BioAssay AID652053 (Broad Institute, 2013)
